Where a name gives a salt, the structure may show the parent alone. Read-outs that look alike come from different tables or passages of the source.

Assay [1] has as its system DOR. As to conditions: mouse, in vivo.
The subject of assay [2] is mice. As to conditions: 10 mg/kg ip; ref Ramabadran 1982; cited from earlier work.
Assay [3] concerns C57BL/6 wild-type mice. Particulars: mouse, in vivo.
Assay [4] concerns DOR. Particulars: in vitro; ref Mosberg et al. 2014; cited from earlier work.
The test system of assay [5] is MOR. As to conditions: pH 7.4.
Assay [6] concerns mice. As to conditions: mouse, in vivo; cited from earlier work.
The subject of assay [7] is MOR. Particulars: cited from earlier work.
For assay [8], the system named is MOR. As to conditions: in vitro; ref Mosberg et al. 2014; cited from earlier work.
In the next assay the test system is MOR knock-out mice. As to conditions: ip, up to 32 mg/kg, n=6.
In assay [9] the test system is C57BL/6 wild-type mice. Particulars: mouse, in vivo. The source holds these as a separate data set.
In assay [10] the test system is DOR. As to conditions: in vitro; ref Mosberg et al. 2014; cited from earlier work. The source holds these as a separate data set.
The test system of assay [11] is C57BL/6 wild-type mice. Particulars: for ED50, WWTW antinociception: mean ± SEM.

Regarding `Oc1ccc2c3c1O[C@H]1c4[nH]c5ccccc5c4C[C@@]4(O)[C@@H](C2)N(CC2CC2)CC[C@]314` [NTI, Naltrindole HCl, reference compound], in the assay with DOR [1], the “SNC80-induced decrease in immobility after pretreatment” value was “blocked” and the “immobility in NTI pretreated mice vs vehicle treated mice” value is “not statistically different from immobility in vehicle treated mice”.

On to `C[N+]1(CC2CC2)CC[C@]23c4c5ccc(O)c4O[C@H]2C(=O)CC[C@@]3(O)[C@H]1C5` (some centres unmarked) [MNTX, methylnaltrexone HBr], for which, in the assay on mice [2], the “block of opioid effects” value is recorded as “block peripheral, but not central, effects of opioids”.

“Dmt-c(SEtS)[DCys-Aic-DPen]-Ser(β-glucose)-NH2 [VRP26]”: the “dose producing maximal antinociceptive effect” value in the assay with C57BL/6 wild-type mice [3] is on record as 10 mg/kg; in the assay on wild type littermates (ip, wild type littermates), 10 mg/kg. In addition, the “lowest, maximally-effective, acute dose in the WWTW assay” value in the assay with C57BL/6 wild-type mice [3] is given as 10 mg/kg. Moreover, the “ED50, WWTW antinociception” value with C57BL/6 wild-type mice [3] (ip) worked out at 5.44 ± 0.10 mg/kg; with C57BL/6 wild-type mice [3] (sc), 5.08 ± 0.23 mg/kg; in the assay on wild type littermates (ip, wild type littermates of MOR knock-out mice, mean ± SEM, n=6), 4.77 ± 0.32 mg/kg; in the assay on C57BL/6 wild-type mice [11] (VRP26 ip, pretreated with 10 mg/kg MNTX ip, n=6) it was 4.73 ± 0.13 mg/kg; with C57BL/6 wild-type mice [11] (VRP26 ip, vehicle pretreated mice, n=6), 4.73 ± 0.22 mg/kg. Also, the “antagonism at DOR” value with DOR [4] is on record as “antagonism at DOR”. In the assay with MOR [5], the “relative efficacy at MOR” value came out at 0.28. Besides, the “SNC80-induced decrease in immobility after pretreatment” value with DOR [1] is “partially blocked SNC80-induced decreases in immobility”. The “immobility, compound alone vs control” value with DOR [1] (sc, 10 mg/kg) is “no effect on immobility as compared with control”. For the same molecule, in the assay with mice [6], the acute tolerance result is recorded as “does not produce acute tolerance”. Also, the “antinociception, WWTW” value with mice [6] is on record as “dose-dependent antinociception”. Besides, the “affinity balance between MOR and DOR” value with MOR [7] (discussion statement, source not given there) was “balanced affinity between MOR and DOR”. Moreover, the “affinity for MOR” value in the assay on MOR [7] (in vitro, ref Mosberg et al. 2014) is listed as “low nanomolar affinity”. For the same molecule, the “agonist activity at MOR” value with MOR [8] is reported as “agonist activity at MOR similar to morphine”. Besides, the “tail withdrawal latency, wild type vs MOR knock-out littermates” value with wild type littermates (10 mg/kg ip, t(10) = 9.161, p < 0.0001) is “significantly increased withdrawal latency in wild type mice as compared with MOR knock-out littermates”. The “increase in tail withdrawal latency” value in the assay on MOR knock-out mice is recorded as “failed to produce a significant increase in tail withdrawal latency up to 32 mg/kg”. Also, the “ED50 of VRP26, day 1, saline treated group” value in the assay with C57BL/6 wild-type mice [9] is given as 5.35 ± 0.17 mg/kg. Further, in the assay on C57BL/6 wild-type mice [9], the “ED50 of VRP26, day 8, saline treated group” value amounted to 5.07 ± 0.23 mg/kg. Also, the “shift in the dose response curve after chronic treatment” value in the assay with C57BL/6 wild-type mice [9] is “no shift in the dose response curve”. For the same molecule, the “affinity for DOR” value with DOR [10] was “low nanomolar affinity”. Moreover, in the assay on C57BL/6 wild-type mice [11] (10 mg/kg MNTX ip, two way ANOVA, effect of dose F(4, 40) = 393.6, p < 0.0001), the “effect of pretreatment (vehicle vs MNTX) on VRP26 antinociception” value is “no effect of pretreatment (vehicle vs MNTX)”. Moreover, in the assay on C57BL/6 wild-type mice [11] (VRP26 ip, vehicle and 10 mg/kg MNTX pretreated mice, n=6), the “dose-dependence of tail withdrawal latency increase” value is reported as “dose-dependent increases in tail withdrawal latency”. The “dose producing maximal response” value with C57BL/6 wild-type mice [11] (ip, both vehicle and MNTX pretreated mice) stood at 10 mg/kg.

(Values after paper PMC5068912 (Psychopharmacology, 2016).)
